Measurements as given in US10421761B2, “Compounds for kinase modulation, and indications therefor” (Plexxikon Inc., priority 2013, dated 2019).
Like-named read-outs stand apart in the source and are kept apart here.

Test system: B9 cells

## CCCS(=O)(=O)Nc1ccc(F)c(C(=O)c2c[nH]c3ncc(-c4ccc(Cl)cc4)cc23)c1F [vemurafenib]
  probe 1416811_s_at response, Ctla2a /// Ctla2b (cytotoxic T lymphocyte-associated protein 2 alpha /// cytotoxic T lymphocyte-associated protein 2 beta): 1.92
  probe 1452352_at response, Ctla2b (cytotoxic T lymphocyte-associated protein 2 beta): 2.37
B9 cells, Repl. 1
  expression of gene probe 1416454_s_at (Acta2): 0.23
  expression of gene probe 1416612_at (Cyp1b1): 0.19
  expression of gene probe 1418240_at (Gbp2): 0.30
  expression of gene probe 1418497_at (Fgf13): 0.39
  expression of gene probe 1419089_at (Timp3): 0.26
  expression of gene probe 1427183_at (Efemp1): 0.30
  expression of gene probe 1427747_a_at (Lcn2): 0.36
  expression of gene probe 1435906_x_at (Gbp2): 0.21
  expression of gene probe 1438931_s_at (LOC100047324 /// Sesn1): 0.35
  expression of gene probe 1438988_x_at (Hn1): 0.26
  expression of gene probe 1440147_at (Lgi2): 0.34
  expression of gene probe 1448734_at (Cp): 0.31
  expression of gene probe 1449227_at (Ch25h): 0.25
  expression of gene probe 1449335_at (Timp3): 0.24
  expression of gene probe 1449340_at (Sostdc1): 0.17
  expression of gene probe 1449815_a_at (Ssbp2): 0.38
  expression of gene probe 1450618_a_at (Sprr2a): 0.36
  expression of gene probe 1460250_at (Sostdc1): 0.23
B9 cells, Repl. 2
  expression of gene probe 1416454_s_at (Acta2): 0.20
  expression of gene probe 1416612_at (Cyp1b1): 0.16
  expression of gene probe 1418240_at (Gbp2): 0.28
  expression of gene probe 1418497_at (Fgf13): 0.38
  expression of gene probe 1419089_at (Timp3): 0.31
  expression of gene probe 1427183_at (Efemp1): 0.37
  expression of gene probe 1427747_a_at (Lcn2): 0.35
  expression of gene probe 1435906_x_at (Gbp2): 0.30
  expression of gene probe 1438931_s_at (LOC100047324 /// Sesn1): 0.33
  expression of gene probe 1438988_x_at (Hn1): 0.27
  expression of gene probe 1440147_at (Lgi2): 0.38
  expression of gene probe 1448734_at (Cp): 0.30
  expression of gene probe 1449227_at (Ch25h): 0.29
  expression of gene probe 1449335_at (Timp3): 0.36
  expression of gene probe 1449340_at (Sostdc1): 0.20
  expression of gene probe 1449815_a_at (Ssbp2): 0.38
  expression of gene probe 1450618_a_at (Sprr2a): 0.41
  expression of gene probe 1460250_at (Sostdc1): 0.20
Repl. 1, B9 cells
  probe 1415828_a_at response, Serp1 (stress-associated endoplasmic reticulum protein 1): 2.05
  probe 1415936_at response, Bcar3 (breast cancer anti-estrogen resistance 3): 2.21
  probe 1416129_at response, Errfi1 (ERBB receptor feedback inhibitor 1): 3.31
  probe 1416246_a_at response, Coro1a (coronin, actin binding protein 1A): 1.90
  probe 1416325_at response, Crisp 1 (cysteine-rich secretory protein 1): 5.15
  probe 1416401_at response, Cd82 (CD82 antigen): 2.87
  probe 1416488_at response, Ccng2 (cyclin G2): 2.23
  probe 1416527_at response, Rab32 (RAB32, member RAS oncogene family): 0.42
  probe 1416811_s_at response, Ctla2a /// Ctla2b (cytotoxic T lymphocyte-associated protein 2 alpha /// cytotoxic T lymphocyte-associated protein 2 beta): 2.28
  probe 1417065_at response, Egr1 (early growth response 1): 4.13
  probe 1417130_s_at response, Angptl4 (angiopoietin-like 4): 3.10
  probe 1417328_at response, Ercc1 (excision repair cross-complementing rodent repair deficiency, complementation group 1): 2.20
  probe 1417488_at response, Fosl1 (fos-like antigen 1): 2.09
  probe 1417494_a_at response, Cp (ceruloplasmin): 0.39
  probe 1417495_x_at response, Cp (ceruloplasmin): 0.48
  probe 1417533_a_at response, Itgb5 (integrin beta 5): 0.50
  probe 1417625_s_at response, Cxcr7 (chemokine (C-X-C motif) receptor 7): 2.03
  probe 1417677_at response, Opn3 (opsin 3): 2.18
  probe 1417812_a_at response, Lamb3 (laminin, beta 3): 2.60
  probe 1417837_at response, Phlda2 (pleckstrin homology-like domain, family A, member 2): 2.26
  probe 1417902_at response, Slc19a2 (solute carrier family 19 (thiamine transporter), member 2): 2.00
  probe 1417962_s_at response, Ghr (growth hormone receptor): 2.19
  probe 1418349_at response, Hbegf (heparin-binding EGF-like growth factor): 3.29
  probe 1418350_at response, Hbegf (heparin-binding EGF-like growth factor): 2.66
  probe 1418538_at response, Kdelr3 (KDEL (Lys-Asp-Glu-Leu) endoplasmic reticulum protein retention receptor 3): 2.08
  probe 1418539_a_at response, Ptpre (protein tyrosine phosphatase, receptor type, E): 1.94
  probe 1419149_at response, Serpine1 (serine (or cysteine) peptidase inhibitor, clade E, member 1): 2.13
  probe 1419188_s_at response, Ccl27a /// Gm13306 (chemokine (C-C motif) ligand 27A /// predicted gene 13306): 2.62
  probe 1419317_x_at response, Lce3c (late cornified envelope 3C): 2.53
  probe 1419322_at response, Fgd6 (FYVE, RhoGEF and PH domain containing 6): 2.60
  probe 1419529_at response, Il23a (interleukin 23, alpha subunit p19): 2.84
  probe 1419671_a_at response, Il17rc (interleukin 17 receptor C): 0.49
  probe 1419722_at response, Klk8 (kallikrein related-peptidase 8): 2.02
  probe 1419816_s_at response, Errfi1 (ERBB receptor feedback inhibitor 1): 3.87
  probe 1420352_at response, Prss22 (protease, serine, 22): 3.07
  probe 1420380_at response, Cc12 (chemokine (C-C motif) ligand 2): 0.37
  probe 1420407_at response, Ltb4r1 (leukotriene B4 receptor 1): 2.29
  probe 1420450_at response, Mmp10 (matrix metallopeptidase 10): 3.42
  probe 1420537_at response, Kctd4 (potassium channel tetramerisation domain containing 4): 2.36
  probe 1420760_s_at response, Ndrg1 (N-myc downstream regulated gene 1): 1.90
  probe 1420913_at response, Slco2a1 (solute carrier organic anion transporter family, member 2a1): 1.92
  probe 1420955_at response, Vsnl1 (visinin-like 1): 0.38
  probe 1421134_at response, Areg (amphiregulin): 4.28
  probe 1421269_at response, Ugcg (UDP-glucose ceramide glucosyltransferase): 2.46
  probe 1421279_at response, Lamc2 (laminin, gamma 2): 2.23
  probe 1421403_at response, Pi15 (peptidase inhibitor 15): 2.04
  probe 1421551_s_at response, Ifi202b (interferon activated gene 202B): 3.58
  probe 1421668_x_at response, Speer3 (spermatogenesis associated glutamate (E)-rich protein 3): 2.74
  probe 1421679_a_at response, Cdkn1a (cyclin-dependent kinase inhibitor 1A (P21)): 4.27
  probe 1421888_x_at response, Aplp2 (amyloid beta (A4) precursor-like protein 2): 0.65
  probe 1421943_at response, Tgfa (transforming growth factor alpha): 1.93
  probe 1422028_a_at response, Ets1 (E26 avian leukemia oncogene 1, 5′ domain): 2.13
  probe 1422101_at response, Tnfrsf23 (tumor necrosis factor receptor superfamily, member 23): 2.04
  probe 1422138_at response, Plau (plasminogen activator, urokinase): 2.73
  probe 1422139_at response, Plau (plasminogen activator, urokinase): 2.45
  probe 1422222_at response, Ivl (involucrin): 2.50
  probe 1422240_s_at response, Sprr2h (small proline-rich protein 2H): 1.95
  probe 1422273_at response, Mmp1b (matrix metallopeptidase 1b (interstitial collagenase)): 3.30
  probe 1422324_a_at response, Pthlh (parathyroid hormone-like peptide): 2.11
  probe 1422537_a_at response, Id2 (inhibitor of DNA binding 2): 0.53
  probe 1422771_at response, Smad6 (MAD homolog 6 (Drosophila)): 0.46
  probe 1422924_at response, Tnfsf9 (tumor necrosis factor (ligand) superfamily, member 9): 2.01
  probe 1423017_a_at response, Il1rn (interleukin 1 receptor antagonist): 2.63
  probe 1423543_at response, Swap70 (SWA-70 protein): 1.88
  probe 1423597_at response, Atp8a1 (ATPase, aminophospholipid transporter (APLT), class I, type 8A, member 1): 2.02
  probe 1423635_at response, Bmp2 (bone morphogenetic protein 2): 2.41
  probe 1423690_s_at response, Gpsm1 (G-protein signalling modulator 1 (AGS3-like, C. elegans)): 3.37
  probe 1423933_a_at response, 1600029D21Rik (RIKEN cDNA 1600029D21 gene): 2.06
  probe 1424022_at response, Osgin1 (oxidative stress induced growth inhibitor 1): 2.27
  probe 1424090_at response, Sdcbp2 (syndecan binding protein (syntenin) 2): 4.08
  probe 1424306_at response, Elovl4 (elongation of very long chain fatty acids (FEN1/Elo2, SUR4/Elo3, yeast)-like 4): 2.51
  probe 1424383_at response, Tmem51 (transmembrane protein 51): 2.58
  probe 1424471_at response, Rapgef3 (Rap guanine nucleotide exchange factor (GEF) 3): 2.18
  probe 1424638_at response, Cdkn1a (cyclin-dependent kinase inhibitor 1A (P21)): 2.76
  probe 1424783_a_at response, Ugt1a1 /// Ugt1a10 /// Ugt1a2 /// Ugt1a5 /// Ugt1a6a /// Ugt1a6b /// Ugt1aTc /// Ugt1a9 (UDP glucuronosyltransferase 1 family): 0.39
  probe 1425452_s_at response, Fam84a (family with sequence similarity 84, member A): 2.41
  probe 1425660_at response, Btbd3 (BTB (POZ) domain containing 3): 2.08
  probe 1426037_a_at response, Rgs16 (regulator of G-protein signaling 16): 3.19
  probe 1426181_a_at response, I124 (interleukin 24): 5.52
  probe 1426260_a_at response, Ugt1a1 /// Ugt1a10 /// Ugt1a2 /// Ugt1a5 /// Ugt1a6a /// Ugt1a6b /// Ugt1aTc /// Ugt1a9 (UDP glucuronosyltransferase 1 family): 0.39
